In one assay the test system is EP2 receptor. Nature of the assay: EP2 receptor expression in LPS stimulated human PBMC's via RT-PCR. The format is cell-based. The conditions noted are these: control PBMC's. On the procedure:
(§1) Serial dilutions were made to co-culture cells with a final concentration of […] NS-398 in a 0.1% DMSO. Control and trauma groups were co-cultured with 0.1% DMSO vehicle for comparisons with NS-398 treated groups.

A further assay has as its system EP4 receptor. The assay is described as follows: EP4 receptor expression in LPS stimulated human PBMC's via RT-PCR. Format: cell-based. The settings on record: control PBMC's. On the procedure:
as §1

In the next assay the test system is CD14 receptor. The settings on record: mononuclear cells from control and injured subjects, co-culture with 100 μM PGE2.
Where [1] appears, read: exogenous PGE2 from 10^−4 μM, below 100 μM.

Entries after “also recorded” stand apart in the source; their conditions may differ.

Experimental for CD14 receptor: To confirm that injury was not down regulating all circulating mononuclear cell surface receptors, the expression of the CD14 receptor, which is ubiquitous on the surface of mononuclear cells, was evaluated.

`CCCCC[C@H](O)/C=C/[C@H]1[C@H](O)CC(=O)[C@@H]1C/C=C\CCCC(=O)O` [PGE2, Prostaglandin-E2]: the EP2 receptor expression result in the assay with EP2 receptor (100 μM exogenous PGE2) is listed as “attenuated to levels below those seen in control samples; also recorded: Decreased expression”; in the assay with EP2 receptor (setting [1]), “no change in receptor expression; also recorded: No attenuation”. Further, the EP4 receptor expression result is “attenuated to levels below those seen in control samples; also recorded: Decreased expression” with EP4 receptor (100 μM exogenous PGE2) and “no change in receptor expression; also recorded: No attenuation” with EP4 receptor (setting [1]). The CD14 receptor expression entry in the assay on CD14 receptor is “did not markedly alter the levels of CD14 receptor expression”.

The record behind these values is patent US20020006915A1, “Use of COX-2 inhibitors to treat sepsis, complications thereof, and EP receptor modulation” (priority 2000, published 2002).
